Laboratory results taken from ChEMBL document CHEMBL1130050, “Novel conformationally extended naphthalene-based inhibitors of farnesyltransferase” (J Med Chem, 1997).
Square brackets hold non-standard residues; d marks the D form. Peptide text beside a SMILES is read from it. Tic = O=C(O)[C@@H]1Cc2ccccc2CN1; NMeM = CN[C@@H](CCSC)C(=O)O; NMeV = CN[C@H](C(=O)O)C(C)C; Nle = CCCC[C@H](N)C(=O)O

Columns and labels:
[1] = target: T1, Protein farnesyltransferase (Homo sapiens, UniProt P49354+P49356); experiment: Ratio of FTase IC50 values compared to compound 8; assay type: protein-complex assay
[2] = target: T1, Protein farnesyltransferase; experiment: Inhibition of [3H]FPP incorporation into human Ha-Ras by farnesyltransferase; assay type: protein-complex assay
[3] = target: T1, Protein farnesyltransferase; experiment: Percent inhibition of Ha-Ras protein processing in THAC (Ha-ras-transformed CCL39) cells at 10 uM; assay type: functional
[4] = target: T1, Protein farnesyltransferase; experiment: Ratio of FTase IC50 values compared to compound 5; assay type: protein-complex assay
[5] = target: T1, Protein farnesyltransferase; experiment: Inhibition of [3H]FPP incorporation into human Ki-Ras by farnesyltransferase; assay type: protein-complex assay

SMILES	IC50 [2]	inhibition [3]	Ratio [4]	also measured
CSCC[C@@H](C(=O)O)N(C)C(=O)[C@H](Cc1ccccc1)NC(=O)[C@@H](NC(=O)[C@@H](N)CS)C(C)C (H-CVF[NMeM]-OH)	1400 nM	–	–	Ratio [1]: 38
CSCC[C@H](/N=C(\S)[C@H](Cc1ccccc1)NC(=O)[C@@H](NC(=O)[C@@H](N)CS)C(C)C)C(=O)O	–	–	–	Ratio [1]: 0.5
CSCC[C@H](NC(=O)c1cccc2c(NC[C@@H](N)CS)cccc12)C(=O)O	–	0%	1	–
CCCC[C@H](NC(=O)[C@H](Cc1ccccc1)NC(=O)[C@@H](NC(=O)[C@@H](N)CS)C(C)C)C(=O)O (H-CVF[Nle]-OH)	950 nM	–	–	Ratio [1]: 26
CSCC[C@H](NC(=O)c1cccc2cc(NC(=O)[C@@H](N)CS)ccc12)C(=O)O	60 nM	–	–	IC50 [5]: 1250 nM
CSCC[C@@H](C(=O)O)N(C)C(=O)c1cccc2c(NC[C@@H](N)CS)cccc12	210 nM	–	37.5	–
CSCC[C@H](/N=C(\S)c1cccc2c(NC[C@@H](N)CS)cccc12)C(=O)O	–	–	0.9	–
CCCC[C@H](NC(=O)c1cccc2c(NC[C@@H](N)CS)cccc12)C(=O)O	44 nM	–	8	–
CSCC[C@H](NC(=O)c1cccc2cc(NC[C@@H](N)CS)ccc12)C(=O)O	–	10%	–	IC50 [5]: 17.5 nM
CSCC[C@H](NC(=O)c1cccc2c(NC(=O)[C@@H](N)CS)cccc12)C(=O)O	–	0%	–	–
COC(=O)[C@H](CCSC)NC(=O)c1cccc2cc(NC[C@@H](N)CS)ccc12	–	> 50%	–	IC50 [5]: 500 nM
COC(=O)[C@H](CCSC)NC(=O)c1cccc2c(NC[C@@H](N)CS)cccc12	325 nM	20%	58	–
CSCC[C@H](NC(=S)[C@H](Cc1ccccc1)NC(=O)[C@@H](NC(=O)[C@@H](N)CS)C(C)C)C(=O)O	17 nM	–	–	–
CSCC[C@H](NC[C@H](Cc1ccccc1)NC(=O)[C@@H](NC(=O)[C@@H](N)CS)C(C)C)C(=O)O	–	–	–	Ratio [1]: 60
CSCC[C@H](NC(=O)[C@@H]1Cc2ccccc2CN1C(=O)[C@H](C(C)C)N(C)C(=O)[C@@H](N)CS)C(=O)O (H-C[NMeV][Tic]M-OH)	–	0%	–	–
CSCC[C@H](NCc1cccc2c(NC[C@@H](N)CS)cccc12)C(=O)O	–	–	54	–
CSCC[C@H](NC(=S)c1cccc2c(NC[C@@H](N)CS)cccc12)C(=O)O	4.8 nM	–	–	–
COC(=O)[C@H](CCSC)NC(=O)[C@H](Cc1ccccc1)NC(=O)[C@@H](NC(=O)[C@@H](N)CS)C(C)C (H-CVFM-OMe)	3400 nM	–	–	Ratio [1]: 92
